Columns and labels:
MGC-803 cells [1] = experiment: CCK-8 proliferation assay, MGC-803; assay type: cell-based, human; conditions: Homo sapiens, MGC-803; 48 h, CCK-8, mean ± SD
Experimental: (§1) All synthesized β-lactam-azide derivatives were evaluated for their antiproliferative activity against three cancer cell lines (MGC-803, MCF-7, A549) using CCK-8 proliferation assay. The well-known anticancer drug CA-4P was used as a control[36],[37].
(§2) MGC-803 cell line was obtained from the Chinese Academy of Sciences (Shanghai, China). MCF-7 and A549 were from the National Cell Center, China. MGC-803 cells were cultured in DMEM culture medium (DMEM, Biological Industries, Kibbutz Beit Haemek, Israel). A549 and MCF-7 cells were cultured in 1640 medium (1640, Biological Industries, Kibbutz Beit Haemek, Israel). All medium were supplemented with 10% fetal bovine serum, 100 U/ml penicillin (North China Pharmaceutical group Co.), and 100 µg/ml streptomycin (North China Pharmaceutical group Co.). All cells were cultured at 37 °C in a humidified incubator containing 5% CO2.
(§3) Synthesized analogues used in the study were dissolved in 100% cell culture grade DMSO and the final concentration of DMSO as <0.1% for testing on cancer cell lines. Cytotoxicity assays were performed on the human gastric carcinoma cell line MGC-803, the human mammary carcinoma cell line MCF-7, the human lung carcinoma cell line A549. Cells (3500–5000/well) were seeded into 96-well plates in 100 µL of culture medium. The cells were treated in triplicate with a gradient concentration of testing compounds and incubated at 37 °C, 5% CO2 for 48 h. For all cell lines, CCK-8 assay was performed to measure cytotoxic effects. The absorbance was measured using a microplate reader (BioTek Instrument, Inc. Vermont, USA) with a test wavelength of 450 nm. The absorbance levels were corrected against untreated control absorbance values. All experiments were performed in triplicate and SPSS17.0 was used for data analysis to obtain IC50 values.

MCF-7 cells = experiment: CCK-8 proliferation assay, MCF-7; assay type: cell-based, human; conditions: Homo sapiens, MCF7; 48 h, CCK-8, mean ± SD
Experimental: as §1, §2, §3

A549 cells = experiment: CCK-8 proliferation assay, A549; assay type: cell-based, human; conditions: Homo sapiens, A549; 48 h, CCK-8, mean ± SD
Experimental: as §1, §2, §3

MGC-803 cells [2] = experiment: Annexin V-FITC/PI apoptosis analysis by flow cytometry; assay type: cell-based, human; conditions: 24 h
Experimental: (§4) We next evaluated whether 28 induces apoptosis in MGC-803 cells by flow cytometry analysis of propidium iodide (PI) and Annexin V stained cells. […] When MGC-803 cells were incubated with 28 at 0.1, 0.2, and 0.3 μM for 24 h, the percentages of early apoptotic cells were 12.4%, 40.5%, and 49.7%, respectively and those of late apoptotic cells 2.1%, 10.1%, and 9.4%, respectively (Fig. 4A). Bcl-2 family proteins were crucial components of mitochondrial stress-induced cellular apoptosis. Thus, the expression of apoptosis-related proteins was also determined.
(§5) An Annexin V-FITC/PI kit (KeyGEN BioTECH, Nanjing, China) was used to detect apoptosis. Cells were seeded in 6-well plates and treated with 0, 0.1, 0.2 and 0.3 µM of 28 for 24 h. Then MGC-803 cells were collected and suspended in binding buffer containing Annexin V-FITC (0.5 mg/mL) and PI (0.5 mg/mL) and incubated in dark for 20 min and analyzed by flow cytometry (Becton, Dickinson and Company, NJ). The apoptosis related proteins of western blot analysis were conducted according to our previously reported method[31],[32].

MGC-803 cells [3] = experiment: Western blotting of apoptosis-related proteins; assay type: cell-based, human; conditions: concentration-dependent
Experimental: as §4, §5

[4] = tested on: interphase microtubules in MGC-803 cells; experiment: Immunofluorescence staining of tubulin; assay type: cell-based, human; conditions: 24 h
Experimental: As the microtubule system plays a vital role in the maintenance of cell shape and basic cellular functions, an immunofluorescence staining assay was performed to study whether compound 28 could disrupt the microtubule dynamics in living cells.
Cell climbing slices were sterilized and placed on the bottom of a 24-well plate for 24 h before MGC-803 cells were incubated in DMSO, different concentrations of 28 or CA-4P solutions were added. The next day the cell climbing slices were fixed by 4% paraformaldehyde for 15 min after washed by PBS for 3 times. 0.5% Triton-X-100 was added and shaked for 20 min. 0.1% BSA was used to block for 30 min and then removed. The cell climbing slices were added α-tubulin antibody (1:100) and incubated overnight at 4 °C in humid box. On the third day the humid box was taken out and balanced at 37 °C for 30 min. The cell climbing slices were washed by PBST for 3 times for each of 3 minutes and coated with FITC antibody (1:500) in a dark place for 1 h at room temperature. DAPI was used to re-stained for 5 min and then removed. The cell climbing slices were sealing by an anti-fluorescence quenching agent and images collected by Laser scanning confocal microscope (Nikon, Japan).

tubulin = experiment: In vitro tubulin polymerization assay; assay type: biochemical; conditions: 5.6 mg/ml tubulin, absorbance 340 nm, 37 °C; read-out: tubulin polymerization inhibition IC50
Experimental: The in vitro tubulin polymerization inhibitory activity of 28 was then evaluated. Purified and unpolymerized tubulin was incubated with 28 at indicated concentrations, and tubulin polymerization was measured by the method originally described by D. Bone et al.[46].
An amount of 5.6 mg/ml tubulin was resuspended in PEM buffer [80 mM PIPES (pH 6.9), 1 mM EGTA, 0.5 mM MgCl2, 1 mM […], 10.2% (v/v) glycerol] and then was preincubated with compound 28 or vehicle DMSO on ice. The reaction was monitored by a spectrophotometer in absorbance at 340 nm at 37 °C every 5 min. The final concentrations of 28 were listed as follows: 0, 1, 2, and 4 µM.

[5] = tested on: colchicine-binding site of β-tubulin; experiment: EBI competition assay; assay type: cell-based, human; conditions: preincubation 0.25 and 5 μM, 2 h; EBI 100 μM
Experimental: Six-well plates were seeded with MGC-803 cells at 5 × 10^5 cells per well. […] After 2 h, the cells were harvested and cell extracts were prepared for Western blot analysis. 20 μg of proteins was subjected to gel electrophoresis using 10% polyacrylamide gels. The proteins were transferred onto PVDF membranes, then blocked by 5% nonfatmilk for 1 h, and subsequently incubated with anti-β-tubulin antibody for 16 h at 4 °C. Next, the membranes were washed extensively and immunoreactive proteins were finally detected by chemiluminescence.

MGC-803 cells [6] = experiment: Cell scarification assay; assay type: cell-based, human; conditions: time-dependent and concentration-dependent
Experimental: In a transwell test, the average numbers of migrated cells in fields of control, 0.1 and 0.2 μM 28 treated MGC-803 cells were 29.4, 22.4 and 16.6, respectively (Fig. 6B and C). Based on the results from these tests, we next examined the protein expression of EMT-related makers such as E-cadherenin, N-cadherenin, ZO-1 and Vementin[55].
MGC-803 cells were seeded in 6-well plate until cells grew to confluence. Tips were used to make a scratch on cells. Control and 28 contained culture media without fetal bovine serum were added subsequently after 3 times of washing by PBS. Then the cells were cultured at 37 °C in a humidified incubator containing 5% CO2 and photos taken at 0, 16, 24 and 48 h, respectively.

IC50 (MGC-803 cells [1]): 106 ± 1 nM
IC50 (MCF-7 cells): 421 ± 47 nM
IC50 (A549 cells): 507 ± 52 nM
IC50 (tubulin): 2260 nM
Structure (SMILES): COc1cc(N2C(=O)[C@H](c3cccs3)[C@H]2c2cccc(N=[N+]=[N-])c2)cc(OC)c1OC (relative stereo) [Compound 28, trans-4-(3-azidophenyl)-3-(thiophen-2-yl)-1-(3,4,5-trimethoxyphenyl)azetidin-2-one]
early apoptotic cells (MGC-803 cells [2]; 0.1 μM): 12.4%
late apoptotic cells (MGC-803 cells [2]; 0.1 μM): 2.1%
early apoptotic cells (MGC-803 cells [2]; 0.2 μM): 40.5%
late apoptotic cells (MGC-803 cells [2]; 0.2 μM): 10.1%
early apoptotic cells (MGC-803 cells [2]; 0.3 μM): 49.7%
late apoptotic cells (MGC-803 cells [2]; 0.3 μM): 9.4%
expression of Bcl-2 (MGC-803 cells [3]): decreased
expression of cleaved caspase-3, caspase-9 and PARP (MGC-803 cells [3]): increased
protein expression of BAX (MGC-803 cells [3]): increased
depolymerization of interphase microtubules ([4]; 0.075 μM): moderately depolymerized
depolymerization of interphase microtubules ([4]; 0.3 μM): much stronger
formation of the EBI: β-tubulin adduct [5]: dose-dependently prevented the formation of the EBI: β-tubulin adduct
distances of scratches compared to control (MGC-803 cells [6]): obviously increased

From article PMC5630639 (Scientific Reports, 2017)
